In US20250099554A1, “COMPOSITIONS AND METHODS OF FAS INHIBITION” (ONL Therapeutics, Inc., priority 2018, published 2025):
Entries after “also recorded” stand apart in the source; their conditions may differ. Where a SMILES comes first, the peptide text is derived from it.

Assays:
[1] = test system: neural retina gene expression following elevated IOP; experiment: qPCR of neural retina after microbead-induced elevation of IOP (Example 1); format: in vivo, mice
Excerpt: Quantitative PCR (qPCR) was used on neural retina samples isolated at 28 days post microbead or saline injection from mice treated with Compound 1 (or vehicle) on Day 0.
Data shown are mRNA expression fold change over saline+vehicle control+/−SEM. N=6/group, **P<0.01, ***P<0.001, ****P<0.0001.
A 96-well was expanded to a 384-well qPCR system to allow for an increase in the number of genes to be examined in one run.
For this qPCR analysis, saline+vehicle was used as the control. DDCt=experimental DCt−mean DCt of saline+vehicle, and Expression Fold Change=2^−DDCt.

[2] = IOP by rebound tonometer in microbead-induced mouse model of elevated IOP; format: in vivo, C57BL/6J mice
Description: (§1) C57BL/6J mice were used in this experiment in which 2 μL of sterile polystyrene microbeads (15 μm; 7.2×10^6 bead/mL) or saline were injected into the anterior chamber on Day 0 followed by 1 μL of 0.5 mg/mL or 2 mg/mL Compound 1 or vehicle by intravitreal (IVT) injection on Day 0 or 7 days after the microbead/saline injections. IOP was followed every 3 days for 4 weeks using a rebound tonometer (TonoLab). At 4 weeks post anterior chamber injection, retinal flatmounts were prepared and stained for Brn3a, an RGC-specific protein, to visualize RGCs. Sixteen non-overlapping images were taken, at 60× with 4-5 images within each quadrant and the images were used to calculate the RGC density. For axon analysis, optic nerves were stained with p-phenylenediamine (PPD) to visualize myelinated axons and 10 non-overlapping photomicrographs were taken at 100× magnification covering the entire area of the optic nerve cross-section, and these images were used to calculate the axon density. Quantitative PCR (qPCR) was also performed on retinal tissue isolated from the mice at 28 days post microbead/saline injections. To assess production of mature IL-1β (p17), protein lysates (20 μg per sample) were prepared from posterior eye cups (neural retina, choroid, and sclera) at 28 days post microbead/saline injections and analyzed by Western blot and densitometry. All data are presented as mean±SEM. […]

[3] = test system: retinal ganglion cells (RGCs) and axons; experiment: RGC (Brn3a) and axon (PPD) density in microbead-induced mouse model of elevated IOP; format: in vivo, C57BL/6J mice
Description: (§2) C57BL/6J mice were used in this experiment in which 2 μL of sterile polystyrene microbeads (15 μm; 7.2×10^6 bead/mL) or saline were injected into the anterior chamber on Day 0 followed by 1 μL of 0.5 mg/mL or 2 mg/mL Compound 1 or vehicle by intravitreal (IVT) injection on Day 0 or 7 days after the microbead/saline injections. IOP was followed every 3 days for 4 weeks using a rebound tonometer (TonoLab). At 4 weeks post anterior chamber injection, retinal flatmounts were prepared and stained for Brn3a, an RGC-specific protein, to visualize RGCs. Sixteen non-overlapping images were taken, at 60× with 4-5 images within each quadrant and the images were used to calculate the RGC density. For axon analysis, optic nerves were stained with p-phenylenediamine (PPD) to visualize myelinated axons and 10 non-overlapping photomicrographs were taken at 100× magnification covering the entire area of the optic nerve cross-section, and these images were used to calculate the axon density. Quantitative PCR (qPCR) was also performed on retinal tissue isolated from the mice at 28 days post microbead/saline injections. To assess production of mature IL-1β (p17), protein lysates (20 μg per sample) were prepared from posterior eye cups (neural retina, choroid, and sclera) at 28 days post microbead/saline injections and analyzed by Western blot and densitometry. All data are presented as mean±SEM. One-way ANOVA and the Sidak multiple-comparison test were used for analysis of RGCs and axons. A p value<0.05 was considered significant.

[4] = test system: retinal microglia/macrophages; experiment: Iba1 staining of retinal whole mounts, microglia/macrophage activation; format: in vivo, C57BL/6J mice; conditions: 28 days post microbead injection, treated at Day 0
Description: FIG. 12 depicts representative confocal images of retinal whole mounts at 28 days post microbead injection from mice treated with ONL1204 (or vehicle) at Day 0. Retinal whole mounts were stained with Iba1 (microglia/macrophage). Yellow arrows indicate homeostatic microglia with dendritic morphology; blue arrows indicate activated microglia and/or infiltrating macrophages with amoeboid morphology. Morphometric analysis was performed on Iba1+cells in the ganglion cell layer (60 cells per retina) and the longest process length measured from the edge of the cell body (in […]) was used to quantitate microglia activation.

[5] = test system: neural retina inflammatory gene expression; experiment: qPCR of neural retina at 28 days post microbead injection (Example 2); format: in vivo, C57BL/6J mice; conditions: treated on Day 0
Description: as §2
(§3) Quantitative PCR was performed on neural retina isolated at 28 days post microbead injection from mice treated with ONL1204 (or vehicle) on Day 0. Data shown are mRNA expression fold change over saline controls+/−SEM. N=4/group, *P<0.05, **P<0.01. For analysis of mature IL-1β (p17) production, protein lysates ([…] per sample) were prepared from posterior eye cups (neural retina, choroid, and sclera) and analyzed by Western blot.

mature IL-1β (p17) = experiment: Western blot and densitometry of mature IL-1β (p17) in posterior eye cups; format: in vivo, C57BL/6J mice
Description: as §1, with “For axon analysis, optic nerves were stained with p-phenylenediamine (PPD) to visualize myelinated axons and 10 non-overlapping photomicrographs were taken at 100× magnification covering the entire area of the optic nerve cross-section, and these images were used to calculate the axon density.” left out, “densitometry.” for “densitometry. All data are presented as mean±SEM.”
as §3, with “Data shown are mRNA expression fold change over saline controls+/−SEM. N=4/group, *P<0.05, **P<0.01.” left out

[6] = 28 days post microbead injection, treated Day 0
[7] = 28 days post microbead injection, treated Day 0, vs microbeads and vehicle
[8] = 0.5 mg/ml, 1 μL IVT at Day 0, 4 weeks
[9] = 2.0 mg/mL IVT at Day 7 post-microbead injection, compared to saline plus vehicle controls
[10] = 2 mg/ml, 1 μL IVT at Day 0, 4 weeks

## CC[C@H](C)[C@H](NC(=O)[C@H](Cc1ccc(O)cc1)NC(=O)[C@H](CC(N)=O)NC(=O)[C@@H](NC(=O)[C@H](C)NC(=O)CNC(=O)[C@H](CC(C)C)NC(=O)[C@H](Cc1ccc(O)cc1)NC(=O)[C@@H](NC(=O)[C@H](Cc1cnc[nH]1)NC(=O)[C@@H](N)Cc1cnc[nH]1)[C@@H](C)CC)C(C)C)C(=O)N[C@@H](Cc1ccc(O)cc1)C(N)=O [Compound 1, His-His-Ile-Tyr-Leu-Gly-Ala-Val-Asn-Tyr-Ile-Tyr-amide] (H-HHIYLGAVNYIY-NH2)
[1]; 28 day time point
  ASC gene expression: Limited or no change
  Bax gene expression: unaffected
  FADD gene expression: unaffected
  FasL gene expression: unaffected
  FasR gene expression: unaffected
  NLRP2 gene expression: Limited or no change
  caspase 3 gene expression: unaffected
  complement C4 gene expression: Limited or no change
[1]; [6]
  C1q gene expression: significantly reduced
  Caspase 8 gene expression: significantly reduced
  Complement C3 gene expression: significantly reduced
  NLRP3 gene expression: significantly reduced
  TLR4 gene expression: significantly reduced
[1]; 28 days post microbead injection, treated Day 0, decreased in microbead controls
  cFLIP gene expression (pro-survival): restored to near-baseline
[1]; [7]
  GFAP gene expression: significantly reduced
  IL-1β gene expression: significantly reduced
  IL-6 gene expression: significantly reduced
  IL-18 gene expression: significantly reduced
  IP-10 gene expression: significantly reduced
  MCP-1 gene expression: significantly reduced
  MIP1α gene expression: significantly reduced
  MIP2 gene expression: significantly reduced
  MIP-1β gene expression: significantly reduced
  TNFα gene expression: significantly reduced
[2]; IVT injection on Day 7 post microbeads
  effect on IOP: did not affect
[2]; IVT injection on the same day as the microbeads
  effect on IOP: did not affect
[3]; [8]
  axon density: statistically significant preservation
  retinal ganglion cell density: statistically significant preservation
[3]; [9]
  axon density: nearly total preservation
  retinal ganglion cell density: nearly total preservation
[3]; [10]
  axon density: statistically significant preservation
  retinal ganglion cell density: statistically significant preservation
[4]
  microglial/macrophage activation: inhibits; also recorded: reduced number of activated microglia/macrophages
[5]
  CCL2/MCP-1 gene expression: substantially inhibited
  CCL3/MIP-1α gene expression: substantially inhibited
  TNF-α gene expression: substantially inhibited
Mature IL-1β (p17); 28 days post microbead injection
  production of mature IL-1β: reduced
Mature IL-1β (p17); Western blot, following microbead injection
  reduction in production of mature IL-1β by densitometry, compared to vehicle: two-fold
